# From patent US20160002141A1, “SYNTHESIS OF CALEBIN-A AND ITS BIOLOGICALLY ACTIVE ANALOGS” (priority 2014, published 2016)
row,melting point,Compound
1,289 to 291 °C,"O=C(/C=C/c1ccc(O)cc1)COC(=O)/C=C/c1ccc(O)cc1 [Example 10d, 4-Hydroxycinnamoylmethyl 4-hydroxycinnamate]"
2,181.4 to 183.4 °C,"COc1cc(/C=C/C(=O)COC(=O)/C=C/c2ccc(O)cc2)ccc1O [Example 10b, Feruloylmethyl 4-hydroxycinnamate]"
3,138 to 140 °C,"COc1cc(/C=C/C(=O)COC(=O)/C=C/c2ccc(O)c(OC)c2)ccc1O [Example 10a, Feruloylmethyl ferulate]"
4,175.7 to 177.7 °C,"COc1cc(/C=C/C(=O)OCC(=O)/C=C/c2ccc(O)cc2)ccc1O [Example 10c, 4-Hydroxycinnamoylmethyl ferulate]"
